Experimental data published in patent US9980943B2, “Methods of treating muscular dystrophy” (BOARD OF REGENTS OF THE NEVADA SYSTEM OF HIGHER EDUCATION, …, priority 2013, dated 2018).

Legend:
Format in all cases: cell-based, mouse
[1] = system: α7 integrin (LacZ reporter in α7βgal+/− myoblasts); test: Myoblast α7+/LacZ integrin FDG assay (Burkin assay in myoblasts, 96-well); details: α7+/LacZ myoblasts, 96-well
[2] = system: α7 integrin (LacZ reporter in α7+/LacZ myotubes); test: Myotube α7 integrin FDG assay (Burkin assay in myotubes, 96-well); details: myotubes
[3] = system: β-galactosidase in CMV-LacZ C2C12 myotubes; test: CMV-LacZ secondary screen in C2C12 myotubes (β-Gal stabilizing assay); details: for CMV-LACZ in Myotubes (β-galactosidase activity relative to DMSO): CMV-LacZ C2C12 myotubes, 96-well format
Outline: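 Stable CMV-LacZ C2C12 clone; six-point curve 0.5–40 μM; duplicates.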

[4] = 5 uM, C2C12 CMV-LacZ myotubes, fold relative to DMSO
[5] = 10 uM, C2C12 CMV-LacZ myotubes, fold relative to DMSO
[6] = 20 uM, C2C12 CMV-LacZ myotubes, fold relative to DMSO
[7] = 40 uM, C2C12 CMV-LacZ myotubes, fold relative to DMSO

| Compound | Burkin Assay in Myoblasts, value relative to DMSO ([1]; 0.5 uM) | Burkin Assay in Myoblasts, value relative to DMSO ([1]; 1 uM) | Burkin Assay in Myoblasts, value relative to DMSO ([1]; 5 uM) | Burkin Assay in Myoblasts, value relative to DMSO ([1]; 10 uM) | Burkin Assay in Myoblasts, value relative to DMSO ([1]; 20 uM) | Burkin Assay in Myoblasts, value relative to DMSO ([1]; 40 uM) | Burkin Assay in Myotubes (signal relative to DMSO) ([2]; 0.5 uM) | Burkin Assay in Myotubes (signal relative to DMSO) ([2]; 1 uM) | Burkin Assay in Myotubes (signal relative to DMSO) ([2]; 5 uM) | Burkin Assay in Myotubes (signal relative to DMSO) ([2]; 10 uM) | Burkin Assay in Myotubes (signal relative to DMSO) ([2]; 20 uM) | Burkin Assay in Myotubes (signal relative to DMSO) ([2]; 40 uM) | CMV-LACZ in Myotubes (β-galactosidase activity relative to DMSO) ([3]; 5 uM) | CMV-LACZ in Myotubes (β-galactosidase activity relative to DMSO) ([3]; 10 uM) | CMV-LACZ in Myotubes (β-galactosidase activity relative to DMSO) ([3]; 20 uM) | CMV-LACZ in Myotubes (β-galactosidase activity relative to DMSO) ([3]; 40 uM) | CMV-LACZ in Myotubes, signal relative to DMSO [3, 4] | CMV-LACZ in Myotubes, signal relative to DMSO [3, 5] | CMV-LACZ in Myotubes, signal relative to DMSO [3, 6] | CMV-LACZ in Myotubes, signal relative to DMSO [3, 7] | other results |
| --- | --- | --- | --- | --- | --- | --- | --- | --- | --- | --- | --- | --- | --- | --- | --- | --- | --- | --- | --- | --- | --- |
| COc1ccc(S(=O)(=O)N2CCN(C(=O)C3CCC3)CC2)cc1 [MLS001139515-01] | 0.9225 | 0.9852 | 1.053 | 1.16 | 0.8336 | 0.8527 | 0.9636 | 1.009 | 1.013 | 0.9488 | 1.124 | 1.013 | 0.9404 | 0.7604 | 0.9237 | 0.9601 |  |  |  |  |  |
| O=S(=O)(NCC(c1ccco1)N1CCOCC1)c1ccc(Cl)cc1 (centres unmarked) [MLS000724709-01] | 0.9899 | 0.9554 | 0.7389 | 0.779 | 0.486 | 0.5536 | 0.9961 | 1.467 | 1.04 | 1.002 | 0.885 | 0.9768 | 0.8422 | 0.8828 | 1.054 | 1.125 |  |  |  |  |  |
| CC(C)(C)n1cnc2cc(NC(=O)c3ccco3)ccc21 [MLS001223567-01] |  |  |  |  |  |  |  |  |  |  |  |  |  |  |  |  | 1.002 | 0.8931 | 1.241 | 1.012 | Burkin Assay in Myoblasts, signal relative to DMSO ([1]; 0.5 uM): 1.044; Burkin Assay in Myoblasts, signal relative to DMSO ([1]; 1 uM): 1.082; Burkin Assay in Myoblasts, signal relative to DMSO ([1]; 5 uM): 0.9608; Burkin Assay in Myoblasts, signal relative to DMSO ([1]; 10 uM): 0.9203; Burkin Assay in Myoblasts, signal relative to DMSO ([1]; 20 uM): 0.8579; Burkin Assay in Myoblasts, signal relative to DMSO ([1]; 40 uM): 0.864; Burkin Assay in Myotubes, α7 integrin LacZ reporter signal relative to DMSO ([2]; 0.5 uM): 0.9533; Burkin Assay in Myotubes, α7 integrin LacZ reporter signal relative to DMSO ([2]; 1 uM): 0.9978; Burkin Assay in Myotubes, α7 integrin LacZ reporter signal relative to DMSO ([2]; 5 uM): 0.8636; Burkin Assay in Myotubes, α7 integrin LacZ reporter signal relative to DMSO ([2]; 10 uM): 0.924; Burkin Assay in Myotubes, α7 integrin LacZ reporter signal relative to DMSO ([2]; 20 uM): 0.9991; Burkin Assay in Myotubes, α7 integrin LacZ reporter signal relative to DMSO ([2]; 40 uM): 0.9931 |
| CN(C)C1(CN=Cc2cc(Cl)cc([N+](=O)[O-])c2O)CCCCC1 [MLS001179695-01] |  |  |  |  |  |  |  |  |  |  |  |  |  |  |  |  | 1.183 | 1.095 | 1.175 | 1.047 | Burkin Assay in Myoblasts, signal relative to DMSO ([1]; 0.5 uM): 1.033; Burkin Assay in Myoblasts, signal relative to DMSO ([1]; 1 uM): 0.9441; Burkin Assay in Myoblasts, signal relative to DMSO ([1]; 5 uM): 0.8752; Burkin Assay in Myoblasts, signal relative to DMSO ([1]; 10 uM): 0.9871; Burkin Assay in Myoblasts, signal relative to DMSO ([1]; 20 uM): 0.8923; Burkin Assay in Myoblasts, signal relative to DMSO ([1]; 40 uM): 0.8068; Burkin Assay in Myotubes, α7 integrin LacZ reporter signal relative to DMSO ([2]; 0.5 uM): 1.053; Burkin Assay in Myotubes, α7 integrin LacZ reporter signal relative to DMSO ([2]; 1 uM): 0.949; Burkin Assay in Myotubes, α7 integrin LacZ reporter signal relative to DMSO ([2]; 5 uM): 1.199; Burkin Assay in Myotubes, α7 integrin LacZ reporter signal relative to DMSO ([2]; 10 uM): 0.9922; Burkin Assay in Myotubes, α7 integrin LacZ reporter signal relative to DMSO ([2]; 20 uM): 0.9298; Burkin Assay in Myotubes, α7 integrin LacZ reporter signal relative to DMSO ([2]; 40 uM): 0.8546 |
| COc1nccc(NCc2ccccc2)c1C#N [MLS001077207-01] |  |  |  |  |  |  |  |  |  |  |  |  |  |  |  |  |  |  |  |  | fold induction at 0.5 µM ([1]; Mus musculus, Myoblast, 48 h, 0.5 uM, read-out: Burkin Assay in Myoblasts, signal relative to DMSO): 0.97; fold induction at 1 µM ([1]; Mus musculus, Myoblast, 48 h, 1 uM, read-out: Burkin Assay in Myoblasts, signal relative to DMSO): 1.01; fold induction at 5 µM ([1]; Mus musculus, Myoblast, 48 h, 5 uM, read-out: Burkin Assay in Myoblasts, signal relative to DMSO): 1.05; fold induction at 10 µM ([1]; Mus musculus, Myoblast, 48 h, 10 uM, read-out: Burkin Assay in Myoblasts, signal relative to DMSO): 1.06; fold induction at 20 µM ([1]; Mus musculus, Myoblast, 48 h, 20 uM, read-out: Burkin Assay in Myoblasts, signal relative to DMSO): 1.01; fold induction at 40 µM ([1]; Mus musculus, Myoblast, 48 h, 40 uM, read-out: Burkin Assay in Myoblasts, signal relative to DMSO): 1.15; fold induction at 0.5 µM ([2]; Mus musculus, Myotube, 0.5 uM, read-out: Burkin Assay in Myotubes, α7 integrin LacZ reporter signal relative to DMSO): 0.985; fold induction at 1 µM ([2]; Mus musculus, Myotube, 1 uM, read-out: Burkin Assay in Myotubes, α7 integrin LacZ reporter signal relative to DMSO): 1.06; fold induction at 5 µM ([2]; Mus musculus, Myotube, 5 uM, read-out: Burkin Assay in Myotubes, α7 integrin LacZ reporter signal relative to DMSO): 1.42; fold induction at 10 µM ([2]; Mus musculus, Myotube, 10 uM, read-out: Burkin Assay in Myotubes, α7 integrin LacZ reporter signal relative to DMSO): 1.15; fold induction at 20 µM ([2]; Mus musculus, Myotube, 20 uM, read-out: Burkin Assay in Myotubes, α7 integrin LacZ reporter signal relative to DMSO): 1.01; fold induction at 40 µM ([2]; Mus musculus, Myotube, 40 uM, read-out: Burkin Assay in Myotubes, α7 integrin LacZ reporter signal relative to DMSO): 1.21; fold induction at 5 µM ([3]; Mus musculus, C2C12, read-out: CMV-LACZ in Myotubes, signal relative to DMSO, 5 uM, C2C12 CMV-LacZ myotubes, fold relative to DMSO): 0.952; fold induction at 10 µM ([3]; Mus musculus, C2C12, read-out: CMV-LACZ in Myotubes, signal relative to DMSO, 10 uM, C2C12 CMV-LacZ myotubes, fold relative to DMSO): 1.04; fold induction at 20 µM ([3]; Mus musculus, C2C12, read-out: CMV-LACZ in Myotubes, signal relative to DMSO, 20 uM, C2C12 CMV-LacZ myotubes, fold relative to DMSO): 0.866; fold induction at 40 µM ([3]; Mus musculus, C2C12, read-out: CMV-LACZ in Myotubes, signal relative to DMSO, 40 uM, C2C12 CMV-LacZ myotubes, fold relative to DMSO): 0.782 |
| N/C(=N\OC(=O)COc1cc(Cl)c(Cl)cc1Cl)c1ccncc1 [MLS000625140-01] | 0.8839 | 0.8709 | 0.8748 | 0.7833 | 0.7589 | 0.6829 | 0.8484 | 0.8454 | 1.114 | 0.9131 | 0.6793 | 0.6514 | 0.9172 | 1.036 | 1.107 | 1.016 |  |  |  |  |  |
| COc1ccc(NC(=O)c2cccc(N3C(=O)c4ccc(C(=O)Nc5ccc(OC)c(O)c5)cc4C3=O)c2)cc1O [MLS001124732-01] |  |  |  |  |  |  |  |  |  |  |  |  |  |  |  |  | 1.025 | 1.016 | 1.07 | 0.972 | Burkin Assay in Myoblasts, signal relative to DMSO ([1]; 0.5 uM): 1.121; Burkin Assay in Myoblasts, signal relative to DMSO ([1]; 1 uM): 1.071; Burkin Assay in Myoblasts, signal relative to DMSO ([1]; 5 uM): 0.8622; Burkin Assay in Myoblasts, signal relative to DMSO ([1]; 10 uM): 0.8125; Burkin Assay in Myoblasts, signal relative to DMSO ([1]; 20 uM): 0.6893; Burkin Assay in Myoblasts, signal relative to DMSO ([1]; 40 uM): 0.6581; Burkin Assay in Myotubes, α7 integrin LacZ reporter signal relative to DMSO ([2]; 0.5 uM): 1.0065; Burkin Assay in Myotubes, α7 integrin LacZ reporter signal relative to DMSO ([2]; 1 uM): 1.029; Burkin Assay in Myotubes, α7 integrin LacZ reporter signal relative to DMSO ([2]; 5 uM): 0.8759; Burkin Assay in Myotubes, α7 integrin LacZ reporter signal relative to DMSO ([2]; 10 uM): 0.8964; Burkin Assay in Myotubes, α7 integrin LacZ reporter signal relative to DMSO ([2]; 20 uM): 0.8719; Burkin Assay in Myotubes, α7 integrin LacZ reporter signal relative to DMSO ([2]; 40 uM): 0.7888 |
| COc1cc(NC(=O)CN(C)S(=O)(=O)c2ccc3c(c2)CC(C)N3C(C)=O)cc(OC)c1OC (centres unmarked) [MLS001122792-01] | 0.9702 | 0.8787 | 0.913 | 0.8643 | 0.9989 | 0.8058 | 1.192 | 1.032 | 1.102 | 0.6414 | 1.068 | 0.8522 |  |  |  |  | 0.8137 | 0.9675 | 0.9969 | 0.7254 |  |
